Measured values from patent USRE46228E1, “Pigmentation-regulating compounds” (LIPOTEC, S.A., priority 2007, dated 2016).

Legend:
human melanocytes = experiment: Depigmenting efficacy in human melanocyte cultures (microscopy count of melanin-containing cells); format: cell-based; conditions: 0.1 mM compound, 5 days, fresh medium daily; normalized to control sample (0)
Method: The melanin content was is seen directly by means of microscopy using a 40 magnification lens. The depigmenting efficacy was is determined by counting the number of cells containing melanin and the total number of cells, and the obtained results were are normalized in relation to the whitening efficacy of a control sample.

mushroom tyrosinase = experiment: Activity assay on the action of mushroom tyrosinase in vitro (L-Dopa substrate, melanin read at 492 nm); format: biochemical; conditions: melanin formed normalized to control sample (100), 10 min at 37° C.
Method: The assay is performed in 96 well plates and the samples are performed in triplicate. The control sample contains 80 μL of buffer (150 mM HEPES), 10 μL of mushroom tyrosinase of 10 μg/μL and 10 μL of 10 mM L-Dopa substrate. […] The samples thus prepared are incubated at 37° C. for 10 minutes. Then the plate containing the samples is cooled for 5 minutes on ice to stop the enzymatic reaction. To quantify the melanin produced it is measured in the plate reader at a length of 492 nm.

[1] = molecular target: T1, endogenous tyrosinase extracted from human melanocytes (Homo sapiens, UniProt P14679); experiment: Activity assay on endogenous tyrosinase extracted from human melanocytes (L-Dopa substrate, absorbance 475 nm); format: biochemical; conditions: 1 mM compound; 30 min incubation with enzyme; one hour after adding L-Dopa; relative to control (100)
T1 construct: The endogenous tyrosine of the human melanocytes seeded at a confluence of 95% is extracted; endogenous in cells; host or cells: human melanocytes (cultured; extract used)
T1 sequence (P14679 19-529): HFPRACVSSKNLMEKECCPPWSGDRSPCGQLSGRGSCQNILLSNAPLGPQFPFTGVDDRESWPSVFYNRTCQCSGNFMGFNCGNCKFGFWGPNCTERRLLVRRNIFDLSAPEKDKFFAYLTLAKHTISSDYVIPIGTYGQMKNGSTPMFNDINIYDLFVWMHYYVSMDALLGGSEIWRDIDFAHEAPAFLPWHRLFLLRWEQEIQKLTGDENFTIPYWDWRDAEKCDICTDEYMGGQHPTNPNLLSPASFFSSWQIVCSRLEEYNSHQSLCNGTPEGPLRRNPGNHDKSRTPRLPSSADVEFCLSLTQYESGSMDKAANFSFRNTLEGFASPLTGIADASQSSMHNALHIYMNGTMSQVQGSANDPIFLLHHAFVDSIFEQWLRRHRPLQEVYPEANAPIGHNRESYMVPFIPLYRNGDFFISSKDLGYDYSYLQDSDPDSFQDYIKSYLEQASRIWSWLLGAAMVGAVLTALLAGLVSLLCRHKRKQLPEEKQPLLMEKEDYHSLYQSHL
Method: The human melanocytes are cultured in DMEM medium supplemented with 10% FBS, 1% penicillin/streptomycin and 100 nM PMA. […] The endogenous […] of the human melanocytes seeded at a confluence of 95% is extracted. The assay is performed after extracting and quantifying the enzymatic content. […] To check the enzymatic activity after the treatment, the synthetic L-Dopa (10 mM) substrate is added, measuring absorbance at a wavelength of 475 nm one hour after having added L-Dopa. This measurement allows evaluating the melanin content produced.

human keratinocytes = experiment: Photoprotecting efficacy in human keratinocyte cultures (solar simulation irradiation, Neutral Red viability); format: cell-based; conditions: 150 μg/mL
Method: The human keratinocytes were maintained in culture for 24 hours in 96 well plates to form monolayers and the cells were pre-incubated in the dark with 150 μg/mL of 7-methoxy-6-palmitoyl-2,2-dimethylchromane or saline phosphate buffer (control) for one hour at 37° C. and humidified air with 5% CO2. The cells were then irradiated with a solar simulation lamp with an energy of 37 J/cm^2 at room temperature for 150 minutes. A control plate was maintained in the dark for the same time at room temperature. The medium of the cells was replaced after the irradiation period with fresh medium and the cells were incubated for 24 additional hours. The cell viability was determined by means of the Neutral Red dye, measuring the optical density at 540 nm in a spectrophotometer.
The photoprotecting efficacy was determined by comparing the viability obtained in the cells treated with 7-methoxy-6-palmitoyl-2,2-dimethylchromane in relation to the response of the irradiated and non-irradiated control cells.

% MELANIN (mushroom tyrosinase; 1 mM compound) [%] | % MELANIN [1] [%] | % MELANIN (mushroom tyrosinase; 0.1 mM compound) [%] | SMILES | % DEPIGMENTING EFFICACY (human melanocytes) [%] | PHOTOPROTECTTNG EFFICACY (human keratinocytes; viability of treated cells compared with irradiated and non-irradiated control cells) [%] | viability at 150 µg/mL (human keratinocytes; Homo sapiens, Keratinocyte, light or radiation study, 1 h pre-incubation, irradiated 37 J/cm^2 for 150 min, 24 h later, non-irradiated control 100%, irradiated control 13.8%, read-out: CELL VIABILITY) [%]
63.0 | 57.0 |  | CCCCCCCCCCCCCCCC(=O)c1cc2c(cc1OC)OC(C)(C)CC2 [7-methoxy-6-palmitoyl-2,2-dimethylchromane] | 45.9 | 254.9 | 49.1
96.6 | 79.8 |  | COc1cc2c(cc1O)CCC(C)(C)O2 [Lipochroman-6, 6-hydroxy-7-methoxy-2,2-dimethylchromane, reference compound] |  |  | 
 |  | 44.5 | O=c1cc(CO)occ1O [Kojic acid, reference compound] | 30.2 |  | 
